Laboratory results taken from patent US9156840B2, “D2 antagonists, methods of synthesis and methods of use” (ALTOS THERAPEUTICS, LLC, priority 2010, dated 2015).

Biological target: T1, human D2 receptor (Homo sapiens, UniProt P14416)
T1 construct: expressed in transfected cells; cDNA from Origene clones TC308892 and SC123573
Assay: D2 receptor radioligand binding assay (membranes of HEK-293 cells expressing human D2 receptor)
Settings: radioligand displacement, HEK293 membranes, 37° C. for 120 minutes; read-out: Affinity Score (IC50 values for D2 on a scale of 1 through 5)
Procedure: Affinity for the dopamine D2 receptor was tested in vitro, and the following describes the construction of cell lines expressing human D2 receptor, as well as the binding assays themselves.
Establishment of Stable Cell Lines Expressing Either the Cloned Human D2S Receptor or the Cloned Human D2L Receptor.
The human D2 receptor exists in two isoforms: the short form (D2S) and the long form (D2L). The two isoforms are generated from the D2 gene by alternative splicing and the D2L isoform differs from the D2S isoform by the addition of 29 amino acids in the third intracellular loop of its protein structure.
To establish HEK-293 cell lines stably expressing either the human D2S or the human D2L, the human dopamine D2S receptor (Genebank Accession Number NM_016574) and human dopamine D2L receptor (Genebank Accession Number BC021195) were amplified by PCR from Origene cDNA clones TC308892 and SC123573 (respectively) using the following primers: 5-[…]-3 (SEQ ID NO: 1) sense and 5-[…]-3 (SEQ ID NO: 2) antisense. The resulting PCR products were respectively cloned into pENTR-D-TOPO (Invitrogen), sequenced and then transferred into the pCDNA3.2-DEST (Invitrogen) using the LR-clonasc gateway reaction (Invitrogen) and sequenced again to verify the genes sequence.
HEK293 cells were maintained in Eagles Minimum Essential Medium (MEM) supplemented with 0.292 g/L L-glutamine and 10% (v/v) fetal calf serum at 37° C. in a 5% CO2 humidified atmosphere. Cells were grown to 60-80% confluency in 10 cm dishes before transfection. Transfection of the D2S and D2L containing pcDNA3.2-DEST into HEK-293 cells were performed using Lipofectamine 2000 (Invitrogen). Transfected cells were seeded and diluted 2 days after transfection and maintained in culture medium supplemented with 500 μg/mL G418. The HEK-293 cell line expressing the huD2S (R2D2S) and the huD2L (R2D2L) were maintained in culture medium supplemented with 500 μg/mL G418.
D2 Receptor Binding Assays
HEK293 cells were in Eagles Minimum Essential Medium (MEM) supplemented with 10% FBS, 0.292 g/liter L-glutamine, 10^5 units/liter penicillin, 100 mg/liter streptomycin and […] Geneticin at 37° C. in a 5% CO2 humidified atmosphere. Cells were grown to 80-90% confluence and harvested with cell stripper (Cellgro #25-056-CI). Cells were then washed with PBS (2×). Cells were either pelleted and frozen at −80° C. or membranes were prepared immediately.
Cells from pellet were resuspended in homogenization buffer (15 mM Tris*HCl, 2 mM MgCl2*6H2O, 0.3 mM EDTA, 1 mM EGTA pH 7.4 @ 4° C.). Cells were then homogenized using a Polytron (PT 1200) homogenizer at setting 6 for 10 seconds. Crude membranes were pelleted at 39, 412 g for 15 min, at 4° C. (2×) in a Sorval RC6 plus centrifuge. Membranes were finally resuspended in resuspension buffer (50 mM Tris*HCl, 120 mM NaCl, 10 mM MgCl2*6H2O, 1 mM EDTA pH 7.4 @ 4° C.) and sonicated (Fisher Sonic Dismembrator) at setting 5 for 10 seconds.
The radioligand binding assays were conducted in microtiter plates (Costar #3961) with a final volume of 1.0 mL.
The membranes were thawed at room temperature, briefly homogenized using a sonicator, diluted in assay buffer and kept on wet ice until being added to the assay plate. Membranes were diluted to a final target tissue concentration of 10 μg protein per well. The specific binding should be greater than 80% with less than 10% total radioligand bound to minimize ligand depletion errors.
First compound of the invention (50 μL) or assay buffer (50 mM Tris*HCl, 120 mM NaCl, 5 mM MgCl2*6H2O, 1 mM EDTA, 5 mM KCl pH 7.4 @37° C. plus 0.025% BSA), buffer (700 μL) and then membrane (200 μL) were added to the deep well assay plate, which was then shaken for 10 minutes. Finally, radioligand (50 μL) was added.
The assay plates were incubated at 37° C. for 120 minutes.
The assay plate were filtered over 0.3% PEI pretreated glass fiber filtermats (GF/C) using a Packard Filtermate cell harvester. […]

T1 sequence (P14416 whole entry): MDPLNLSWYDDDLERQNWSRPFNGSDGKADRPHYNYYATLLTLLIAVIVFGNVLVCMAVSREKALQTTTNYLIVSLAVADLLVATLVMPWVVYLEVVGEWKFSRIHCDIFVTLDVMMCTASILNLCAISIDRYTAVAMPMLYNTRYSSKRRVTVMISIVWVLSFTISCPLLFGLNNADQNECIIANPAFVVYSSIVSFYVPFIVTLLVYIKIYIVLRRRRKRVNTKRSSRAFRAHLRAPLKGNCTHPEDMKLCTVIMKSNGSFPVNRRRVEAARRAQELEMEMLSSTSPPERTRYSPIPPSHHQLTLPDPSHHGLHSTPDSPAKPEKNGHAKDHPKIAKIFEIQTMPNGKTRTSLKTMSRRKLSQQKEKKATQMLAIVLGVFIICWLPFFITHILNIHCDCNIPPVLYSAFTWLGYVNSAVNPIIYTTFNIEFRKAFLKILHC

SMILES | IC50 [nM]
CN1CCN(C(=O)COC(=O)c2cccc(CN3CN(c4ccccc4)C4(CCN(CCCn5c(=O)[nH]c6ccccc65)CC4)C3=O)c2)CC1 [Compound 35, 2-(4-Methylpiperazin-1-yl)-2-oxoethyl 3-((4-oxo-8-(3-(2-oxo-2,3-dihydro-1H-benzo[d]imidazol-1-yl)propyl)-1-phenyl-1,3,8-triazaspiro[4.5]decan-3-yl)methyl)benzoate] | < 10
O=C(O)c1ccccc1CN1CN(c2ccccc2)C2(CCN(CCCn3c(=O)n(C4CC4)c4ccccc43)CC2)C1=O [Compound 155, 2-((8-(3-(3-cyclopropyl-2-oxo-2,3-dihydro-1H-benzo[d]imidazol-1-yl)propyl)-4-oxo-1-phenyl-1,3,8-triazaspiro[4.5]decan-3-yl)methyl)benzoic acid] | < 10
CC1(F)C(=O)N(CCCN2CCC3(CC2)C(=O)N(Cc2ccccc2C(=O)O)CN3c2ccccc2)c2ccccc21 (stereo not drawn) [Compound 162, 2-((8-(3-(3-Fluoro-3-methyl-2-oxoindolin-1-yl)propyl)-4-oxo-1-phenyl-1,3,8-triazaspiro[4.5]decan-3-yl)methyl)benzoic acid] | < 10
COC(=O)[C@@H](c1ccccc1)N1CN(c2ccccc2)C2(CCN(CCCn3c(=O)[nH]c4ccccc43)CC2)C1=O [Compound 34, (R)-methyl 2-(4-oxo-8-(3-(2-oxo-2,3-dihydro-1H-benzo[d]imidazol-1-yl)propyl)-1-phenyl-1,3,8-triazaspiro[4.5]decan-3-yl)-2-phenylacetate] | < 10
O=C(O)CCCCCN1CN(c2ccccc2)C2(CCN(CCCn3c(=O)[nH]c4ccccc43)CC2)C1=O [Compound 22, 6-(4-Oxo-8-(3-(2-oxo-2,3-dihydro-1H-benzo[d]imidazol-1-yl)propyl)-1-phenyl-1,3,8-triazaspiro[4.5]decan-3-yl)hexanoic acid] | < 10
O=C(O)[C@H](c1ccccc1)N1CN(c2ccccc2)C2(CCN(CCCN3C(=O)Cc4ccccc43)CC2)C1=O [Compound 170, (S)-2-(4-oxo-8-(3-(2-Oxoindolin-1-yl)propyl)-1-phenyl-1,3,8-triazaspiro[4.5]decan-3-yl)-2-phenylacetic acid] | < 10
CC1(C)C(=O)N(CCCN2CCC3(CC2)C(=O)N(c2ccc(NS(C)(=O)=O)cc2)CN3c2ccccc2)c2ccccc21 [Compound 217, N-(4-(8-(3-(3,3-Dimethyl-2-oxoindolin-1-yl)propyl)-4-oxo-1-phenyl-1,3,8-triazaspiro[4.5]decan-3-yl)phenyl)methanesulfonamide] | < 10
O=C(O)c1ccccc1CN1CN(c2ccc(F)cc2)C2(CCN(CCCn3c(=O)n(C4CC4)c4ccccc43)CC2)C1=O [Compound 159, 2-((8-(3-(3-cyclopropyl-2-oxo-2,3-dihydro-1H-benzo[d]imidazol-1-yl)propyl)-1-(4-fluorophenyl)-4-oxo-1,3,8-triazaspiro[4.5]decan-3-yl)methyl)benzoic acid] | < 10
O=C(CCCN1CCC2(CC1)C(=O)N(Cc1ccccc1C(=O)O)CN2c1ccccc1)c1ccccc1 [Compound 154, 2-((4-oxo-8-(4-oxo-4-phenylbutyl)-1-phenyl-1,3,8-triazaspiro[4.5]decan-3-yl)methyl)benzoic acid] | < 10
CC1(F)C(=O)N(CCCN2CCC3(CC2)C(=O)N(Cc2cccc(C(=O)O)c2)CN3c2ccc(F)cc2)c2ccccc21 (stereo not drawn) [Compound 164, 3-((8-(3-(3-Fluoro-3-methyl-2-oxoindolin-1-yl)propyl)-1-(4-fluorophenyl)-4-oxo-1,3,8-triazaspiro[4.5]decan-3-yl)methyl)benzoic acid] | < 10
O=C(O)c1cccc(N2CN(c3ccccc3)C3(CCN(CCCC(=O)c4ccccc4)CC3)C2=O)c1 [Compound 177, 3-(4-Cho-8-(4-oxo-4-phenylbutyl)-1-phenyl-1,3,8-triazaspiro[4.5]decan-3-yl)benzoic acid] | < 10
O=C(CCCCCN1CN(c2ccccc2)C2(CCN(CCCn3c(=O)[nH]c4ccccc43)CC2)C1=O)OCc1ccccc1 [Compound 21, Benzyl 6-(4-oxo-8-(3-(2-oxo-2,3-dihydro-1H-benzo[d]imidazol-1-yl)propyl)-1-phenyl-1,3,8-triazaspiro[4.5]decan-3-yl)hexanoate] | < 10
CS(=O)(=O)Nc1ccc(N2CN(c3ccccc3)C3(CCN(CCCN4C(=O)C5(CC5)c5ccccc54)CC3)C2=O)cc1 [Compound 216, N-(4-(4-Oxo-8-(3-(2′-oxospiro[cyclopropane-1,3′-indoline]-1′-yl)propyl)-1-phenyl-1,3,8-triazaspiro[4.5]decan-3-yl)phenyl)methanesulfonamide] | < 10
O=C(O)c1cccc(CN2CN(c3ccccc3)C3(CCN(CCCC(O)c4ccccc4)CC3)C2=O)c1 (stereo not drawn) [Compound 173, 3-((8-(4-hydroxy-4-phenylbutyl)-4-oxo-1-phenyl-1,3,8-triazaspiro[4.5]decan-3-yl)methyl)benzoic acid] | < 10
CS(=O)(=O)Nc1cccc(CN2CN(c3ccccc3)C3(CCN(CCCN4C(=O)Cc5ccccc54)CC3)C2=O)c1 [Compound 213, N-(3-((4-Cho-8-(3-(2-oxoindolin-1-yl)propyl)-1-phenyl-1,3,8-triazaspiro[4.5]decan-3-yl)methyl)phenyl)methanesulfonamide] | < 10
COc1ccc(N2CN(Cc3cccc(C(=O)O)c3)C(=O)C23CCN(CCCn2c(=O)[nH]c4ccccc42)CC3)cc1 [Compound 56, 3-((1-(4-Methoxyphenyl)-4-oxo-8-(3-(2-oxo-2,3-dihydro-1H-benzo[d]imidazol-1-yl)propyl)-1,3,8-triazaspiro[4.5]decan-3-yl)methyl)benzoic acid] | < 10
O=C(OCCN1CCOCC1)c1cccc(CN2CN(c3ccccc3)C3(CCN(CCCn4c(=O)[nH]c5ccccc54)CC3)C2=O)c1 [Compound 25, 2-Morpholinoethyl 3-((4-oxo-8-(3-(2-oxo-2,3-dihydro-1H-benzo[d]imidazol-1-yl)propyl)-1-phenyl-1,3,8-triazaspiro[4.5]decan-3-yl)methyl)benzoate] | < 10
O=C(O)c1cccc(CN2CN(c3ccc(F)cc3)C3(CCN(CCCN4C(=O)Cc5ccccc54)CC3)C2=O)c1 [Compound 145, 3-((1-(4-Fluorophenyl)-4-oxo-8-(3-(2-oxoindolin-1-yl)propyl)-1,3,8-triazaspiro[4.5]decan-3-yl)methyl)benzoic acid] | < 10
O=C(CCCN1CCC2(CC1)C(=O)N([C@@H](C(=O)O)c1ccccc1)CN2c1ccccc1)c1ccccc1 [Compound 167, (R)-2-(4-oxo-8-(4-oxo-4-phenylbutyl)-1-phenyl-1,3,8-triazaspiro[4.5]decan-3-yl)-2-phenylacetic acid] | < 10
CS(=O)(=O)Nc1ccc(N2CN(c3ccccc3)C3(CCN(CCCN4C(=O)Cc5ccccc54)CC3)C2=O)cc1 [Compound 215, N-(4-(4-oxo-8-(3-(2-oxoindolin-1-yl)propyl)-1-phenyl-1,3,8-triazaspiro[4.5]decan-3-yl)phenyl)methanesulfonamide] | < 10
O=C(O)c1ccccc1CN1CN(c2ccccc2)C2(CCN(CCCN3C(=O)Cc4ccccc43)CC2)C1=O [Compound 148, 2-((4-Oxo-8-(3-(2-oxoindolin-1-yl)propyl)-1-phenyl-1,3,8-triazaspiro[4.5]decan-3-yl)methyl)benzoic acid] | < 10
